# Entries after “also recorded” stand apart in the source; their conditions may differ. Where two headings read alike, the source gives them in different places.
# Tests used:
# [1] = tested on: Salmonella typhimurium TA98 and TA100; test: Mini Ames assay (TA98 and TA100); type: cell-based; conditions: TA98 & TA100, with and without metabolic activation (S9)
# From the text: The Ames test in micro-method (in 6-well plates=mini Ames) follows the general principles of the standard Ames's technique. The Ames test used strains of bacteria Salmonella typhimurium that carry mutations in the genes involved in histidine synthesis. These strains are auxotrophic mutants, they require histidine for growth but cannot produce it. The assay was used to observe the ability of the test item to induce reverse mutations allowing the bacteria to grow in a histidine-free medium. The number of bacteria that revert and acquire the wild-type ability to grow in the absence of histidine can be estimated by counting the colonies that develop upon incubation. The use of different strains allows the identification of different mechanisms of gene mutation (TA98 for detection of frameshift mutations and TA100 for detection of base pair substitutions). […]
# A toxicity assessment was performed on complete nutriment agar plate (with histidine) to define the highest concentration to be used in the genotoxicity assay. […] The first concentration analyzed in the well (6-well plate) was 500 μg per plate followed by 7 serial dilutions (2 times factor of dilution). […] The viability of the positive and negative controls was analyzed for each strain, in the presence or absence of metabolic activation system, and were compared with historical data to validate the study. […]
# [2] = SF logD; type: physicochemical
# [3] = iv PK mice; conditions: female, mouse, in vivo
# From the text: Other studies including, but not limited to, CaCO2 permeability, metabolite profiling in human microsomes (Syneos 7007703.SA.186) and in human hepatocytes (Syneos 7007703.SA.185), metabolite M3b structural elucidation (Syneos 7007703.SA.186), mouse iv female (ODS CFH-1798), mouse iv+ABT females (ODS CFH 1799), mouse topical d1,d10 (ODS Study Number: NBK39-32, 12 Sep. 2019, ELN Bioanalysis study: NBK156-79), rat iv (Pharmaron PH-DMPK-GAL-20-002), dog topical d1, d10 (CRL FY19.085) and minipig topical PK dl, d7 (Pharmaron 92404-19-914) are also conducted using the standard protocols known in the art.
# [4] = tested on: IL-6 induced pSTAT3 in TF-1 cells; test: In vitro cellular pSTAT3 assay, IL-6 stimulated TF-1 cells; type: cell-based; conditions: Homo sapiens
# Experimental: . The flasks were incubated overnight at 37° C., 5% CO2 then seeded in 96 well plates (TPP) at 150000 cells/well in 25 μL. Cells were treated with 5 IL/well of serially diluted compounds in DMSO (final DMSO concentration of 0.1%) and incubated for 30 min at 37° C. IL-6 (6 IL/well, 100 ng/ml as a final concentration in Opti-MEM, Thermofisher, PHC0066) was added to the cell plates and followed by a 30-min incubation at 37° C. Next, cells were lysed by adding 12 μl/well of 4× supplemented lysis buffer, incubated at 4° C. for 30 min under agitation. The samples were processed for the pSTAT3 detection as described by the manufacturer (MSD) with 25 μl of non-diluted cell lysates tested. Compounds were tested in simplicates over 10 three-step dilutions in order to determine their IC50 values.
# [5] = Intrinsic clearance in hepatocytes, human; type: in vitro ADME; conditions: 2.5 μM
# Experimental: (§1) The intrinsic clearance was assessed in cryopreserved Hepatocytes obtained by Human livers donors of mix gender pooled together, male balb-c mouse, male Wistar Han rats and male Göttingen minipig, by looking at the parent compound disappearance. The incubations were performed using a final concentration of viable cells of 1 million/ml (viability above 70%) and test item of 2.5 μM. Incubations were followed up to 2 h. Aliquotes were withdrawn at different time points and reaction quenched with acetonitrile. After centrifugation the supernatant was analyzed by HPLC/MS to quantify the remaining amount of parent in comparison with time 0. The clearance was calculated by fitting the log of the percentage remaining with Graphpad Prism ver.7.
# [6] = Protein binding analysis (RED), rat plasma; type: in vitro ADME, male Wistar Han rat; conditions: 5 μM
# Experimental: (§2) The protein binding was assessed in plasma of Human, male balb-c mice, male Wistar Han rat, male Göttingen minipig by rapid equilibrium dialysis (RED) devices. After the plasma and buffer phosphate 50 mM pH7.4 were equilibrated at 37° C., the compound was added to plasma to reach a final concentration of 5 μM. An aliquot of plasma was withdrawn immediately. Equilibration under mild agitation was continued for 4 h. The plasma and buffer were sampled and samples were quenched with 4 volumes of acetonitrile and centrifuged. Supernatant was quantified in HPLC/MS/MS to calculate the recovery and the percentage of compound dissolved in the buffer (unbound) and bound to plasma proteins.
# [7] = Intrinsic clearance in hepatocytes, minipig; type: in vitro ADME, male Göttingen minipig; conditions: 2.5 μM
# Experimental: as §1
# [8] = Protein binding analysis (RED), human plasma; type: in vitro ADME; conditions: 5 μM
# Experimental: as §2
# [9] = molecular target: T1, Recombinant JAK1 (Homo sapiens, UniProt P23458); test: In vitro enzyme assay (Cisbio kinase assay), JAK1; type: biochemical; conditions: ATP 300 μM; read-out: Enzymatic assay: IC50 JAK1
# T1 construct: purchased Life Technologies PV4775
# T1 sequence (P23458 whole entry): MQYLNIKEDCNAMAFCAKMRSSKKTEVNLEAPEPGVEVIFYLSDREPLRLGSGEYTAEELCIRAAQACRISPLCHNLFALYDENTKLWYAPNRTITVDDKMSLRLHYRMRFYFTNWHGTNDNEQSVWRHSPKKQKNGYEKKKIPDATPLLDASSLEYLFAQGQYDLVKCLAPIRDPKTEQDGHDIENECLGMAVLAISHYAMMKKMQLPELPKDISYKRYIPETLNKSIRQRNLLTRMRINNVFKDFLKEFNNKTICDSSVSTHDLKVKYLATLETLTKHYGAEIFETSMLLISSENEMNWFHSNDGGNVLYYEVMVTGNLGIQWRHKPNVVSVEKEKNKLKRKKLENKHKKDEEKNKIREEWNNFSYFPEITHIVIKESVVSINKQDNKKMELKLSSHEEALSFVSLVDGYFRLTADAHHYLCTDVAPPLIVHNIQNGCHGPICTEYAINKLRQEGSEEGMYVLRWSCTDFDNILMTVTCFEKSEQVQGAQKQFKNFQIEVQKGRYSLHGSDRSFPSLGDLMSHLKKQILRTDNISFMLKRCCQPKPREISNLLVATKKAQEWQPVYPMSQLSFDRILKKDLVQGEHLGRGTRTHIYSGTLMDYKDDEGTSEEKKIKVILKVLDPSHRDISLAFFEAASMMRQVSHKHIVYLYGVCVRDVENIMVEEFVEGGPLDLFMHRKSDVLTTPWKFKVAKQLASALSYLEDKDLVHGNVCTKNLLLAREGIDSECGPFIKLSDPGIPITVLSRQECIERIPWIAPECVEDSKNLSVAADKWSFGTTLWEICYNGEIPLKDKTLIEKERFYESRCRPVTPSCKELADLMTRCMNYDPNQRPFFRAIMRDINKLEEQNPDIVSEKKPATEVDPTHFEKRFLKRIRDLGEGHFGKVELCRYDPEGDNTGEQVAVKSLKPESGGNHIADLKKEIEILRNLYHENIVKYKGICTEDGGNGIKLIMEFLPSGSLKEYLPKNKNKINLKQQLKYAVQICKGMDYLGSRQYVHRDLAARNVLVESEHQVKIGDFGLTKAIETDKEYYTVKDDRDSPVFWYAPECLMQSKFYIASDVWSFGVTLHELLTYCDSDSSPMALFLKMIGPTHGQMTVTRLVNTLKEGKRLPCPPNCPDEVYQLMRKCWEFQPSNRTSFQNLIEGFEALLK
# [10] = Intrinsic clearance in hepatocytes, mouse; type: in vitro ADME, male balb-c mouse; conditions: 2.5 μM
# Experimental: as §1
# [11] = Kinetic aq sol; type: physicochemical
# [12] = Systemic level in PD/IL6 mouse topical dose response; type: in vivo, BALB/c ByJ Rj mice; conditions: topical 10 mM
# Experimental: Skin samples were harvested 15 min.
smiles,measurement,setting,value
"O=S(=O)(N[C@H]1C[C@@H](N2CCOc3cnc4[nH]ccc4c32)C1)C1CN(C2CC2)C1 [Compound E, 1-Cyclopropyl-N-((cis)-3-(2,3-dihydropyrrolo[3′,2′:5,6]pyrido[3,4-b][1,4]oxazin-1(7H)-yl)cyclobutyl)azetidine-3-sulfonamide]",AMES,[1],not considered to be mutagenic; also recorded: Neg/Neg
same,logD,[2],2.1
same,Vd,[3],2.6 L/kg
same,clearance,[3]; read-out: iv PK mice: Cl,8.4 L/h/kg
same,half-life,[3]; read-out: iv PK mice: t½,26.4 min
same,IC50,"[4]; TF-1, cellular assay IL6, read-out: Free IC50",43 nM
same,IC50,"[4]; TF-1 cells, IL-6 100 ng/ml, read-out: Cellular Assay: IC50 IL6",9.9 nM
same,Intr. Clear. h heps,[5],6.5 microL/min/10 6 cells
same,rFU,[6],16%
same,Intr. Clear. minipig heps,[7],44 microL/min/10 6 cells
same,hFU,[8],23%
same,IC50,[9],9 nM
same,Intr. Clear. mheps,[10],28 microL/min/10 6 cells
same,Kinetic aq sol,[11],225/ND/TBD microM
same,PD/IL6 mouse top DR 0.01-10 mM (PG/Acetone/Transcutol): Systemic level @10 mM - 2 hrs,[12],185 nM
